{"source": "patent US7696408B2", "about": "“Method to enhance Agrobacterium-mediated transformation of plants” (Regents of the University of Minnesota, priority 1999, dated 2010)", "key": {"[1]": {"test_system": "soybean cot-node explants", "test": "GUS+ sectors, shoots and shoot primordia after 28 days (4 weeks) on shoot induction medium with PPT (stable transformation)", "assay_type": "cell-based, Glycine max", "conditions": "for % of explants with GUS+ shoots: Bert", "protocol": "After 5 days, the explants were washed in a liquid shoot induction media (B5 salts, MSIII iron stock, 3% sucrose, 3 mM MES, and filter sterilized B5 vitamins, 1.67 mg/l BAP, 100 mg/l cefotaxime, and 500 mg/l ticarcillin; pH 5.6) to remove excess Agrobacterium. Seven to ten explants from each cysteine level were washed in liquid shoot induction medium and placed in GUS histochemical stain (Jefferson et al., 1987). These explants were scored for GUS transient expression. Five to ten explants from each group were imbedded into a single 25×100 mm petri plate with solid shoot induction media (0.8% agar and agent, e.g., 400 mg/l cysteine) containing PPT concentrations of 1.33 mg/l, 3.33 mg/l, or 5.0 mg/l for selection. The plates were then incubated in a growth chamber with a fluctuating temperature between 18° C.-30° C. under a 18 hours light/6 hours dark cycle at 90-150 μE/m^2s. The explants were removed from the chamber after 14 days and transferred to fresh shoot induction media containing herbicide selection. During the transfer, the hypocotyl was carefully removed from the developing shoot mass and imbedded into the media with the differentiating tissue flush with the media surface. The plates were placed back into the growth chamber for an additional 2 weeks. At the 4 week time point, explants without de novo shoot production were discarded. The cotyledons were then removed from the differentiating tissue by cutting at the base of the node and the callus trimmed before transferring into shoot elongation media containing MS salts (murashige and Skoog, 1962), MSIII iron stock, 3% sucrose, 3 mM MES, 0.8% agar, and filter sterilized B5 vitamins, 50 mg/l asparagine, 100 mg/l pyroglutamic acid, 1 mg/l zeatin riboside, 0.1 mg/l indole-acetic acid, 0.5 mg/l GA3, 100 mg/l cefotaxime, 500 mg/l ticarcillin, 1.3-5 mg/l PPT; pH 5.6). Also at this time, a percentage of the explants were sliced into about 10 sections and stained for both GUS positive sectors and GUS positive shoots. Every 2 weeks the explants were transferred into new shoot elongation media after removing dead plant tissue and the bottom of the explant cut to encourage shoot elongation of transformed shoots. For the 4 week data, the minimum number of transformation events was recorded. Those explants with a GUS positive sector in the differentiating tissue giving rise to shoots were recorded with the number of transformation events in bold and italicized (FIGS. 2-5). Shoot data was obtained by recording the number of fully formed shoots seen on an explant. […] To determine the effect of adding cysteine to the co-cultivation medium on stable transformation, co-cultured explants were cultured for 28 days on a shoot-inducing medium containing the herbicide, phosphinothricin (PPT). During the 28 day incubation, the explants usually form de novo callus and shoots in the cot-node region in a structure referred to as a callus/shoot pad (FIG. 9). The callus/shoot pads were sliced in approximately 5 mm sections, immersed into GUS histochemical stain, and scored for GUS^+ sectors throughout the callus/shoot pad. […] The formation of transgenic shoot primordia and sectors extending into developing shoot tissues were also scored on 28 day sections of explants co-cultivated on 0 and 400 mg/l cysteine (FIG. 10A). Only those GUS^+ shoot primordia with obvious trichomes, which are characteristic to leaf tissue, or GUS^+ sectors originating and extending into the tissue at the base of developing shoots (referred to hereafter as differentiating tissue) were scored (FIG. 1A2)."}, "[2]": {"test_system": "Japonica rice meristem cultures", "conditions": "individually or in combination; Enríguez-Obregón et al., 1999; cited from earlier work"}, "[3]": {"conditions": "cysteine 400-1000 mg/l, eight independent experiments"}}, "note": "Values joined by “and” are separate entries in the source; they are usually repeats but may differ in a detail not shown here. Identical values can stand only once. “Also recorded” adds a separate entry of the source.", "data": [{"compound": "N[C@@H](CS)C(=O)O", "note": "[L-cysteine]", "values": [{"measurement": "% of explants with GUS+ shoots", "setting": "[1]; 400 mg/l cysteine and 3.33 mg/l PPT", "result": "16.6% and 16.7%"}, {"measurement": "% of explants with GUS+ shoots", "setting": "[1]; 400 mg/l cysteine and 5 mg/l PPT", "result": 33.3, "unit": "%"}, {"measurement": "average number of GUS+ sectors per explant, each genotype tested", "setting": "[1]; 400 mg/l cysteine vs no cysteine, 28 day", "result": "significantly greater"}, {"measurement": "frequency of explants with a GUS+ sector in differentiating tissue, relative to no cysteine", "setting": "[1]; 400 mg/l cysteine, 28 days", "result": 3.5, "unit": "fold"}, {"measurement": "percent of explants with GUS+ shoot primordia, relative to no cysteine", "setting": "[1]; 400 mg/l cysteine, 28 days", "result": 5, "unit": "fold"}, {"measurement": "average GUS+ foci/explant scored after 4 weeks of shoot initiation", "setting": "[1]; 400 mg/l cysteine, low selection pressure 1.6 to 3.33 mg/l PPT, control 3.3", "result": 15.6, "unit": "GUS+ foci/explant"}, {"measurement": "percent of explants with GUS+ shoot primordia or differentiated sectors, difference from 0 mg/l cysteine", "setting": "[1]; 400 mg/l shoot primordia and differentiated sectors, 1000 mg/l shoot primordia, α=0.05", "result": "significantly differ"}, {"measurement": "increase in GUS+ sectors over the control explants", "setting": "[1]; 1000 mg/l cysteine, 28 days", "result": 3.6, "unit": "fold"}, {"measurement": "average number of GUS+ sectors per explant compared to no cysteine", "setting": "[1]; 300 to 1000 mg/l cysteine (FIG. 9 also 1500 mg/l), 28 days, P<0.05", "result": "significantly higher; also recorded: significantly differ"}, {"measurement": "increase in GUS+ sectors over the no cysteine control", "setting": "[1]; 400 to 1000 mg/l cysteine, 28 days", "result": "> 3", "unit": "fold"}, {"measurement": "explants with GUS+ shoot primordia at other cysteine levels", "setting": "[1]; all other levels of cysteine tested, except 50 mg/l, 28 days", "result": "at least one explant"}, {"measurement": "GUS+ foci at the 28-day interval", "setting": "[1]; amended to solid co-cultivation media", "result": "increase"}, {"measurement": "increase in GUS+ shoot primordia after 28 days", "setting": "[1]; [3]", "result": 5, "unit": "fold"}, {"measurement": "increase in stable T-DNA integration after 28 days", "setting": "[1]; [3]", "result": 3.6, "unit": "fold"}, {"measurement": "number of GUS+ sectors on the callus/shoot pad, cysteine in shoot induction medium", "setting": "[1]; cysteine added to shoot induction medium for 28 days", "result": "did not increase"}, {"measurement": "increase in stable T-DNA transfer in newly developed shoot primordia", "setting": "[1]; cysteine in co-cultivation media", "result": "≥ 5", "unit": "fold"}, {"measurement": "damage and viability of Japonica rice meristem cultures", "setting": "[2]", "result": "decreased damage and increased viability"}]}]}
